Laboratory results as given in patent US11713338B2, “Cyclic peptides multimers targeting α-4-β-7 integrin” (priority 2016, dated 2023).

How the values were obtained:
[1] = target: T1, recombinant integrin α4β7 (Homo sapiens, UniProt P13612+P26010, DEL724-798); assay: Integrin α4β7—MAdCAM-1 ELISA competition assay; assay type: binding; settings: for ELISA Assay Ratio b1/b7: ratio of a4b1 to a4b7 ELISA IC50; for IC50: read-out: ELISA a4b7 Assay IC50
T1 construct: purchased R&D Systems 5397-A3-050
T1 sequence (P13612 34-970 limits assumed): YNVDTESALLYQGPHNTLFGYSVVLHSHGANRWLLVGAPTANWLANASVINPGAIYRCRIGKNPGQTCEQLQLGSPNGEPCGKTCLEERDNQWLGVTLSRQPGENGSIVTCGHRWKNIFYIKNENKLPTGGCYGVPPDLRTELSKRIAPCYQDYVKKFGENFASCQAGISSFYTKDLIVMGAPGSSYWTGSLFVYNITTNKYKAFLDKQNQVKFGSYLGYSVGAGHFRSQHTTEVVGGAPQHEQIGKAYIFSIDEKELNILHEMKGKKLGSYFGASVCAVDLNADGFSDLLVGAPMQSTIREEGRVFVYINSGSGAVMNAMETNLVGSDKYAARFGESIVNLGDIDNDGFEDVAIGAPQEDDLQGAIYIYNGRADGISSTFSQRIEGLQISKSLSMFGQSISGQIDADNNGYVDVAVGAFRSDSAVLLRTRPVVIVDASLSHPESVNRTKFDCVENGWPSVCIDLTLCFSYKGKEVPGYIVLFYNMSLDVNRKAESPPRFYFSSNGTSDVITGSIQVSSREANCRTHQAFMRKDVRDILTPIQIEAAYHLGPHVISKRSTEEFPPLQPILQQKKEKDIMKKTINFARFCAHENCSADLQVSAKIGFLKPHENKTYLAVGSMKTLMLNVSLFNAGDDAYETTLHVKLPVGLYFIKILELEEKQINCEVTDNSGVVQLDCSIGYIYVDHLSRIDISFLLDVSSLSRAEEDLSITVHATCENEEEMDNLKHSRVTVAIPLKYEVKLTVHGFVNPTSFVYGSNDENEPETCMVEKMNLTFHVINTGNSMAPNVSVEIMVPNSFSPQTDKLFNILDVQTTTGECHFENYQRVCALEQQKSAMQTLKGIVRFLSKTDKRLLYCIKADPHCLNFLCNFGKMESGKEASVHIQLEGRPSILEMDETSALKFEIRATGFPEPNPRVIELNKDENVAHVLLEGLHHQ
T1 sequence (P26010 20-723 limits assumed): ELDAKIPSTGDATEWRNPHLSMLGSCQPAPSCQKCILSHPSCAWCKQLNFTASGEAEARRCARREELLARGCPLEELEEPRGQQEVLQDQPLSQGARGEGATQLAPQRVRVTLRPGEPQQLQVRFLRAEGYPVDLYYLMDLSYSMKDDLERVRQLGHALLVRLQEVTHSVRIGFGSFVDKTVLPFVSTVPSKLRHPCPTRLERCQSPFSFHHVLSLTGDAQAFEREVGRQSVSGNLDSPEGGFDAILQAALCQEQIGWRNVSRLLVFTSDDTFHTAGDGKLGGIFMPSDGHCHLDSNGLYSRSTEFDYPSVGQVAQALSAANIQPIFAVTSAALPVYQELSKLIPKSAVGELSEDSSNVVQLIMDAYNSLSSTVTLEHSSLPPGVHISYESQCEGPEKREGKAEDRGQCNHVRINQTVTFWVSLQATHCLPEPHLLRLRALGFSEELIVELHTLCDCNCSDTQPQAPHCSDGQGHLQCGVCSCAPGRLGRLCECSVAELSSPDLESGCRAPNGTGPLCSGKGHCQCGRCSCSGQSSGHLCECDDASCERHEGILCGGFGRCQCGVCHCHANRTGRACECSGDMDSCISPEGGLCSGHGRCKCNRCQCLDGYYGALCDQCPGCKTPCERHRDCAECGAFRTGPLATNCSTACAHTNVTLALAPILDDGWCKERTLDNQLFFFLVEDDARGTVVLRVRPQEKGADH
Experimental: Integrin α4β7—MAdCAM-1 ELISA Competition Assay
The plate was incubated at 40C overnight. […] The plate was then incubated for 1 hour at room temperature. The plate was washed three times with wash buffer (50 mM Tris, 100 mM NaCl, 1 mM MnCl2, 0.05% Tween). To each well, 50 μl of compound diluted in assay buffer was added by transfer from a compound serial dilution plate. […] The plate was incubated at room temperature with shaking (300 rpm) for 2 hours to reach binding equilibrium. […] The plate was incubated at room temperature for 1 hour under agitation.

[2] = target: T2, recombinant integrin α4β1 (Homo sapiens, UniProt P05556+P13612); assay: Integrin α4β1—VCAM-1 competition ELISA; assay type: binding; settings: read-out: ELISA a4b1 Assay IC50
T2 construct: purchased R&D Systems 5397-A3-050
T2 sequence (P05556 21-728 limits assumed, one chain of several): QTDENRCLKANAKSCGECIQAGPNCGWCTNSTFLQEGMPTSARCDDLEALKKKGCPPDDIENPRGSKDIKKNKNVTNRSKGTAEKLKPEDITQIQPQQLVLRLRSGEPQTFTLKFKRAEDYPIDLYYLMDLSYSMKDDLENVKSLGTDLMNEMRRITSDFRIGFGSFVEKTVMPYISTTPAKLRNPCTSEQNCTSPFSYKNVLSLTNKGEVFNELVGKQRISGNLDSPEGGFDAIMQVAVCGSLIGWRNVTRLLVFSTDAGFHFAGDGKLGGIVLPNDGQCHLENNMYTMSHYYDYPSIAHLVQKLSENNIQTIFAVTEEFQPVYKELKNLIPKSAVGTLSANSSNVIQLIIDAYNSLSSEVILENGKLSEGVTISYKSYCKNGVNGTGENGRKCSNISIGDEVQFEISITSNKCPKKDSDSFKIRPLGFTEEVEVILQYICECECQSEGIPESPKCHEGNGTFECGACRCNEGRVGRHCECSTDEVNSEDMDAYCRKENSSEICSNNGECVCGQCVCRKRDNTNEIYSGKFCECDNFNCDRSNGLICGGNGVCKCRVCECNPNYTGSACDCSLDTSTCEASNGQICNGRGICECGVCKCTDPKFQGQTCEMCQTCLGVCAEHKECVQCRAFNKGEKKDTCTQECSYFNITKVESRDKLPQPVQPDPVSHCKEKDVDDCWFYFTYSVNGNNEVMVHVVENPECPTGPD
Experimental: Integrin α4β1—VCAM-1 Competition ELISA
The plate was incubated at 4° C. overnight. […] The plate was then incubated for 1 hour at room temperature. The plate was washed three times with wash buffer (50 mM Tris, 100 mM NaCl, 1 mM MnCl2, 0.05% Tween). To each well, 50 μl of compound diluted in assay buffer was added by transfer from a compound serial dilution plate. […] The plate was incubated at room temperature with shaking (300 rpm) for 2 hours to reach binding equilibrium. Then the plate was washed three times in wash buffer and 100 μl anti-human IgG Fc specific-HRP (Abcam, Ab97225) diluted at 1:2000 in assay buffer was added to each well. The plate was incubated at room temperature for 1 hour under agitation.

| Structure (SMILES) | ELISA Assay Ratio b1/b7 [1] | IC50 [1] [nM] | IC50 [2] [nM] |
| --- | --- | --- | --- |
| CC(C)C[C@@H]1NC(=O)C[C@H](CCCCN)NC[C@H](Cc2ccc(CN)cc2)NC(=O)[C@@H]2CCCN2[C@H](C(=O)NC(C)(C)C)[C@H](C)NC(=O)[C@H]([C@@H](C)O)NC(=O)[C@H](CC(=O)O)NC1=O [Compound 218] | 16.5 | 190 | 3130 |
| Cc1cccc(C)c1-c1ccc(C[C@@H]2NC(=O)[C@@H]3CCCN3[C@H](C(=O)NC(C)(C)C)[C@H](C)NC(=O)[C@H]([C@@H](C)O)NC(=O)[C@H](CC(=O)O)NC(=O)[C@H](CC(C)C)NC(=O)C[C@H](CCCCN)NC2=O)cc1 [Compound 268] | 24.6 | 76 | 1870 |
| CC(C)C[C@@H]1NC(=O)[C@H]2CCCCN2C(=O)[C@H](Cc2cscn2)NC(=O)[C@@H]2CCCN2[C@H](C(=O)NC(C)(C)C)[C@H](C)NC(=O)[C@H]([C@@H](C)O)NC(=O)[C@H](CC(=O)O)NC1=O [Compound 131] | 3.1 | 26 | 80 |
| CC(C)C[C@@H]1NC(=O)C[C@H](CCCCN)NC(=O)C2(CCNCC2)NC(=O)[C@@H]2CCCN2[C@H](C(=O)NC(C)(C)C)[C@H](C)NC(=O)[C@H]([C@@H](C)O)NC(=O)[C@H](CC(=O)O)NC1=O [Compound 275] | 7.7 | 101 | 779 |
| CC(C)C[C@@H]1NC(=O)C[C@H](CCCCN)NC(=O)C2(Cc3ccccc3C2)NC(=O)[C@@H]2CCCN2[C@H](C(=O)NC(C)(C)C)[C@H](C)NC(=O)[C@H]([C@@H](C)O)NC(=O)[C@H](CC(=O)O)NC1=O [Compound 288] | 12.2 | 136 | 1660 |
| CC(C)C[C@@H]1NC(=O)[C@H](Cc2ccccc2)NC(=O)[C@@H]2C[C@@H](F)CN2[C@H](C(=O)NC(C)(C)C)[C@H](C)NC(=O)[C@H]([C@@H](C)O)NC(=O)[C@H](CC(=O)O)NC1=O [Compound 45] | 3.2 | 74 | 238 |
| CC(C)C[C@@H]1NC(=O)c2ccc(-c3cccc4ncccc34)c(c2)CNC(=O)[C@@H]2CCCN2[C@H](C(=O)NC(C)(C)C)[C@H](C)NC(=O)[C@H]([C@@H](C)O)NC(=O)[C@H](CC(=O)O)NC1=O [Compound 347] | 1.3 | 23 | 30 |
| CO[C@H](C)[C@@H]1NC(=O)[C@H](CC(=O)O)NC(=O)[C@H](CC(C)C)NC(=O)[C@H](Cc2ccccc2)NC(=O)[C@@H]2CCCN2[C@H](C(=O)NC(C)(C)C)[C@H](C)NC1=O [Compound 40] | 1.9 | 63 | 119 |
| CC[C@H](C)[C@@H]1NC(=O)[C@H](CC(=O)O)NC(=O)[C@H](CC(C)C)NC(=O)[C@@H](CCCCN)N(C)C(=O)[C@H](Cc2ccc(O)cc2)NC(=O)[C@@H]2CCCN2[C@H](C(=O)NC(C)(C)C)[C@H](C)NC1=O [Compound 154] | 22.8 | 117 | 2660 |
| COc1cccc(Cl)c1-c1ccc(C[C@@H]2NC(=O)[C@@H]3CCCN3[C@H](C(=O)NC(C)(C)C)[C@H](C)NC(=O)[C@H]([C@@H](C)O)NC(=O)[C@H](CC(=O)O)NC(=O)[C@H](CC(C)C)NC(=O)C[C@H](CCCCN)NC2=O)cc1 [Compound 269] | 31.6 | 56 | 1760 |
| CC(C)C[C@@H]1NC(=O)[C@H](Cc2csc(-c3ccncc3)n2)NC(=O)[C@@H]2CCCN2[C@H](C(=O)NC(C)(C)C)[C@H](C)NC(=O)[C@H]([C@@H](C)O)NC(=O)[C@H](CC(=O)O)NC1=O [Compound 97] | 2.5 | 124 | 311 |
| CC(C)C[C@@H]1NC(=O)[C@H]2CCCCN2C(=O)[C@H](Cc2cccc3ccccc23)NC(=O)[C@@H]2CCCN2[C@H](C(=O)NC(C)(C)C)[C@H](C)NC(=O)[C@H]([C@@H](C)O)NC(=O)[C@H](CC(=O)O)NC1=O [Compound 143] | 2.1 | 33 | 68 |
| C=CCOc1ccc(C[C@@H]2NC(=O)[C@@H]3CCCN3[C@H](C(=O)NC(C)(C)C)[C@H](C)NC(=O)[C@H]([C@@H](C)O)NC(=O)[C@H](CC(=O)O)NC(=O)[C@H](CC(C)C)NC(=O)CNC2=O)cc1 [Compound 163] | 11.0 | 126 | 1390 |
| CC(C)C[C@@H]1NC(=O)CN(C)C(=O)[C@H](Cc2ccc(-c3ccccc3)cc2)NC(=O)[C@@H]2CCCN2[C@H](C(=O)NC(C)(C)C)[C@H](C)NC(=O)[C@H]([C@@H](C)O)NC(=O)[C@H](CC(=O)O)NC1=O [Compound 116] | 8.4 | 166 | 1380 |
| CC(C)C[C@@H]1NC(=O)C[C@H](CCCCN)NC(=O)[C@H](Cc2ccccc2-c2ccc(N3CCNCC3)cc2)NC(=O)[C@@H]2CCCN2[C@H](C(=O)NC(C)(C)C)[C@H](C)NC(=O)[C@H]([C@@H](C)O)NC(=O)[C@H](CC(=O)O)NC1=O [Compound 271] | 34.6 | – | 1150 |
| CC(C)C[C@@H]1NC(=O)[C@H](CC2CCCCC2)NC(=O)[C@@H]2CCCN2[C@H](C(=O)NC(C)(C)C)[C@H](C)NC(=O)[C@H]([C@@H](C)O)NC(=O)[C@H](CC(=O)O)NC1=O [Compound 7] | 1.6 | 117 | 190 |
| CC(C)C[C@@H]1NC(=O)C[C@H](CCCCN)NC(=O)CN(Cc2ccccc2)C(=O)[C@@H]2CCCN2[C@H](C(=O)NC(C)(C)C)[C@H](C)NC(=O)[C@H]([C@@H](C)O)NC(=O)[C@H](CC(=O)O)NC1=O [Compound 296] | 94.8 | – | 14700 |
| CC(C)C[C@@H]1NC(=O)[C@@H]2C[C@@H](O)CN2C(=O)[C@H](Cc2ccc(O)cc2)NC(=O)[C@@H]2CCCN2[C@H](C(=O)NC(C)(C)C)[C@H](C)NC(=O)[C@H]([C@@H](C)O)NC(=O)[C@H](CC(=O)O)NC1=O [Compound 139] | 0.7 | 100 | 73 |
| Cc1cccc(C)c1-c1cccc(C[C@@H]2NC(=O)[C@@H]3CCCN3[C@H](C(=O)NC(C)(C)C)[C@H](C)NC(=O)[C@H]([C@@H](C)O)NC(=O)[C@H](CC(=O)O)NC(=O)[C@H](CC(C)C)NC(=O)C[C@H](CCCCN)NC2=O)c1 [Compound 265] | 46.2 | 39 | 1820 |
| CC(C)C[C@@H]1NC(=O)C[C@H](CCCCN)NC(=O)[C@H](Cc2ccc(I)cc2)NC(=O)[C@@H]2CCCN2[C@H](C(=O)NC(C)(C)C)[C@H](C)NC(=O)[C@H]([C@@H](C)O)NC(=O)[C@H](CC(=O)O)NC1=O [Compound 260] | 58.1 | 165 | 9560 |
| CC(C)C[C@@H]1NC(=O)[C@@H](CCCCN)NC(=O)[C@H](Cc2ccc(-c3ccccc3)cc2)NC(=O)[C@@H]2CCCN2[C@H](C(=O)NC(C)(C)C)[C@H](C)NC(=O)[C@H]([C@@H](C)O)NC(=O)[C@H](CC(=O)O)NC1=O [Compound 110] | 21.3 | 185 | 3920 |
